Experimental data: US7285621B2, “Multiple branch peptide construction” (Ambrilia Biopharma, priority 1999, dated 2007)
Where two headings read alike, the source gives them in different places.

What was measured:
[1] = test system: HIV-1NL4-3; assay: HIV-1NL4-3 infection of C8166 cells (syncytia formation, p24 ELISA); assay type: cell-based; parameters: key to Syncytium formation: ++: number of syncytia present in the well were similar to that in control untreated well (35 to 40 syncitia per well); −: total absence of syncitia in the well; ±: presence of 1 to 3 syncitia in the well; conditions: for P24 / Syncytium formation: C8166 cells
Method: C8188 cells were infected with HIV to establish a baseline control. Similar C8188 cells were pretreated the invented MBPCs and then subjected to HIV to determine inhibition rates. The results are illustrated in FIGS. 1A, 1B and 2.
Samples of 3×10^5 C8166 cells were placed in 96-well plates in a volume of 100 μl of culture medium containing various concentrations of peptide. After a one hour treatment at 37° C., 100 μl of viral solution of HIV-1NL4-3 were added. The cells were exposed to the virus of one hour at 37° C. at a multiplicity of infection of 1,000 TCID50 per ml. After through washing, cells were replaced in 1 ml of R10 with the treatment in 24-well plates and cultured in a 37° C. incubator. C8166 culture medium was replaced at day-4 post-infection. During this assay, treatment with peptide was permanent (before, during and after infection). Assays on C8166 cells have been performed at least twice and in duplicate. Toxicity was evaluated by daily cell count and trypan-blue exclusion assay. Infection of C8166 T-Cells with HIV-1NL4-3 was assessed by virus-induced cytopathic effect (syncytia formation) and by quantification of p24 viral protein in the culture supernatants. Measurements of HIV-1 p24^gag concentrations in the culture supernatants were achieved by ELISA, with a detection cut-off of 5 pg/ml (p24 HIV kit, NEN Dupont, Belgium; Quanti-Kine software, RILAB, Genova, Italy).

[2] = test system: H × 10 (HIV-1) strain
Method: SPC3 is (GPGRAF)8-(K)4-(K)2-K-βA-OH as disclosed in WO95/07929. D4 and D5 refer to days 4 and 5 of the experiment. OD stands for Optical Density. N.B. Experiments were performed with non diluted virus solution.

[3] = test system: C57/BL6 and Balb-C mice; assay: Intra-cerebroventricular injection toxicity in mice; assay type: in vivo; conditions: 3×10^−3 M, 100 μg of peptide per 20 g mouse
[4] = test system: HIV-1NL4-3; assay: HIV-1NL4-3 infection of human PBLs/PBMCs (p24 ELISA); assay type: cell-based; conditions: at a concentration of 1 μM
Method: Human peripheral blood lymphocytes (PBLs) obtained from healthy HIV-seronegative donor (Etablissement Francais du Sang, Marseille, France) were isolated by ficoll-Hypaque gradient centrifugation. Cells were cultured in R10 medium supplemented with 20 units/ml of interleukin-2 (IL-2, Proleukin, Chiron, The Netherlands). R10 medium consists of RPMI 1640 supplemented with 2 mM ultraglutamine (BioWhittaker, Vervires, Belgium), penicillin (100 units/ml), streptomycin (100 μg/ml), and 10% heat-inactivated fetal calf serum (BioWhittaker). Cells were first stimulated with phytohemaggiutinin (20 μg/ml)-supplemented R10 (PHA P, DIFCO, Detroit, Mich., USA) for three days. Then, the medium was replaced with R10 supplemented with IL2 (20 units/ml), and subsequently cultures and experiments were carried out in this medium in a 37° C. humidified incubator with 5% CO2.
Samples of 10^6 human PBLs were placed in 96-well plates in 100 μl of R10 containing various concentrations of peptide. After one hour treatment of 37° C., 100 μl of viral solution of HIV-1NL4-3 were added. The cells were exposed to the virus for one hour at 37° C. flushed with 5% CO2. The PBL culture medium was replaced every 3-4 days. The cell viability was assessed by cell counts and trypan-blue exclusion assay. The viral production in the culture supernatant was quantified by p24 ELISA test, as described supra. […]

[5] = test system: HIV-1 W5A2A9 isolate; assay: Inhibition of clinical isolates infectivity; assay type: cell-based; conditions: non-diluted virus solution
Excerpt: The gp41-derived MBPCs of the invention have been tested in vitro for their ability to inhibit HIV-induced syncytium formation, and infection of human lymphocytes by both HIV-1 and HIV-2 viruses (several laboratory strains including LAV-2B, an HIV-2 virus able to infect some CD4^−/GalCer^− cells, as well as clinical isolates such as JRCSF, P16/B6 and P16/C9). […] Similar results were obtained with other HIV strains and clinical isolates tested so far.
Example shown is the HIV-1 W5A2A9 isolate. N.B. Experiments were performed with non-diluted virus solution.

[6] = Molarity 1 × 10^−5, day 4, non diluted virus solution
[7] = Molarity 1 × 10^−6, day 4, non diluted virus solution
[8] = Molarity 5 × 10^−5, day 4, non diluted virus solution
[9] = Molarity 5 × 10^−5, day 5, non diluted virus solution
[10] = Molarity 5 × 10^−6, day 4, non diluted virus solution

## Cc1cn([C@H]2C[C@H](N=[N+]=[N-])[C@@H](CO)O2)c(=O)[nH]c1=O [AZT, reference compound]
[1]; peptide 1 μm
  P24: 0 pg/mL
  Syncytium formation: −
[1]; peptide 10 μm
  P24: 0 pg/mL
  Syncytium formation: −

## CC(C)C[C@H](NC(=O)[C@@H]1CCCN1C(=O)[C@H](CO)NC(=O)[C@H](Cc1ccc(O)cc1)NC(=O)CNC(=O)[C@H](CCC(N)=O)NC(=O)[C@@H](N)CCCNC(=N)N)C(=O)NCCCC[C@H](NC(=O)[C@H](CC(C)C)NC(=O)[C@@H]1CCCN1C(=O)[C@H](CO)NC(=O)[C@H](Cc1ccc(O)cc1)NC(=O)CNC(=O)[C@H](CCC(N)=O)NC(=O)[C@@H](N)CCCNC(=N)N)C(=O)NCCCC[C@H](NC(=O)[C@H](CCCCNC(=O)[C@H](CC(C)C)NC(=O)[C@@H]1CCCN1C(=O)[C@H](CO)NC(=O)[C@H](Cc1ccc(O)cc1)NC(=O)CNC(=O)[C@H](CCC(N)=O)NC(=O)[C@@H](N)CCCNC(=N)N)NC(=O)[C@H](CC(C)C)NC(=O)[C@@H]1CCCN1C(=O)[C@H](CO)NC(=O)[C@H](Cc1ccc(O)cc1)NC(=O)CNC(=O)[C@H](CCC(N)=O)NC(=O)[C@@H](N)CCCNC(=N)N)C(=O)NCCCC[C@H](NC(=O)[C@H](CCCCNC(=O)[C@H](CCCCNC(=O)[C@H](CC(C)C)NC(=O)[C@@H]1CCCN1C(=O)[C@H](CO)NC(=O)[C@H](Cc1ccc(O)cc1)NC(=O)CNC(=O)[C@H](CCC(N)=O)NC(=O)[C@@H](N)CCCNC(=N)N)NC(=O)[C@H](CC(C)C)NC(=O)[C@@H]1CCCN1C(=O)[C@H](CO)NC(=O)[C@H](Cc1ccc(O)cc1)NC(=O)CNC(=O)[C@H](CCC(N)=O)NC(=O)[C@@H](N)CCCNC(=N)N)NC(=O)[C@H](CCCCNC(=O)[C@H](CC(C)C)NC(=O)[C@@H]1CCCN1C(=O)[C@H](CO)NC(=O)[C@H](Cc1ccc(O)cc1)NC(=O)CNC(=O)[C@H](CCC(N)=O)NC(=O)[C@@H](N)CCCNC(=N)N)NC(=O)[C@H](CC(C)C)NC(=O)[C@@H]1CCCN1C(=O)[C@H](CO)NC(=O)[C@H](Cc1ccc(O)cc1)NC(=O)CNC(=O)[C@H](CCC(N)=O)NC(=O)[C@@H](N)CCCNC(=N)N)C(=O)NCCC(=O)O [RL1, (RQGYSPL)8-(K)4-(K)2-K-βA-OH]
[2]; [6]
  Inhibition: 79.82%
[2]; [7]
  Inhibition: 31.29%
[2]; [8]
  Inhibition: 99.09%
[2]; [9]
  Inhibition: 99.75%
[2]; [10]
  Inhibition: 61.45%
[3]
  cellular toxicity and lethal activity: neither cellular toxicity nor lethal activity

## (AcRQGYSPL)2-K-βA [Peptide 12]
[1]; peptide 1 μm
  Syncytium formation: ++ (number of syncytia present in the well were similar to that in control untreated well (35 to 40 syncitia per well))
[1]; peptide 10 μm
  Syncytium formation: ++ (number of syncytia present in the well were similar to that in control untreated well (35 to 40 syncitia per well))

## (D RQGYSPL)2-K-βA [Peptide 9]
[1]; peptide 1 μm
  Syncytium formation: ++ (number of syncytia present in the well were similar to that in control untreated well (35 to 40 syncitia per well))
[1]; peptide 10 μm
  Syncytium formation: ++ (number of syncytia present in the well were similar to that in control untreated well (35 to 40 syncitia per well))

## (D-LPSYGQR)8-K4-K2-K-βA
[1]; at a concentration of 1 μM
  inhibition of HIV infection of C8166 cells: totally inhibit
[4]
  inhibition of HIV infection of PBMCs: totally inhibit

## (GPGRAF)8-(K)4-(K)2-K-βA-OH [SPC3]
[2]; [6]
  Inhibition: 89.13%
  p24: 0.4865 ng/mL
[2]; [7]
  Inhibition: 0%
  p24: 4.786 ng/mL
[2]; [8]
  Inhibition: 98.89%
  p24: 0.05556 ng/mL
[2]; [9]
  Inhibition: 98.47%
  p24: 0.09351 ng/mL
[2]; [10]
  Inhibition: 50.78%
  p24: 2.216 ng/mL
[5]; [conc] 1 × 10^−5, HIV-1 W5A2A9 isolate
  Inhibition (%) of clinical isolates infectivity: 85.7%
[5]; [conc] 1 × 10^−6, HIV-1 W5A2A9 isolate
  Inhibition (%) of clinical isolates infectivity: 28.6%
[5]; [conc] 1 × 10^−7, HIV-1 W5A2A9 isolate
  Inhibition (%) of clinical isolates infectivity: 0%
[5]; [conc] 5 × 10^−6, HIV-1 W5A2A9 isolate
  Inhibition (%) of clinical isolates infectivity: 50.0%
[5]; [conc] 5 × 10^−7, HIV-1 W5A2A9 isolate
  Inhibition (%) of clinical isolates infectivity: 0%
[5]; [conc] 5 × 10^−8, HIV-1 W5A2A9 isolate
  Inhibition (%) of clinical isolates infectivity: 0%

## (GYSPL)2-K-βA [Peptide 6]
[1]; peptide 1 μm
  Syncytium formation: ± (presence of 1 to 3 syncitia in the well)
[1]; peptide 10 μm
  Syncytium formation: ± (presence of 1 to 3 syncitia in the well)

## (KQGYSPL)2-K-βA [Peptide 10]
[1]; peptide 1 μm
  Syncytium formation: ++ (number of syncytia present in the well were similar to that in control untreated well (35 to 40 syncitia per well))
[1]; peptide 10 μm
  Syncytium formation: ++ (number of syncytia present in the well were similar to that in control untreated well (35 to 40 syncitia per well))

## (LPSYGQR)8-K4-K2—K-βA
[1]; 5 μM
  inhibition of syncytium formation and p24 production of HIV-infected cells: 100%
